# Test results: patent US20100081690A1, “OXAZOLE DERIVATIVES AS POSITIVE ALLOSTERIC MODULATORS OF METABOTROPIC GLUTAMATE RECEPTORS” (ADDEX PHARMA SA, priority 2006, published 2010)
# pEC50: −log10 of the molar value.
# Legend:
# mGluR5 = biological target: T1, mGluR5 (Rattus norvegicus, UniProt P31424); settings: Liu et al (2006), Zhang et al (2005); cited from earlier work
# T1 construct: positive allosteric modulators of mGluR5 receptors in native preparations; endogenous in cells; host or cells: primary cortical astrocytes from Sprague-Dawley rat embryos (E16-19)
# rat mGluR5 = biological target: T2, rat mGluR5 (Rattus norvegicus, UniProt P31424); assay: mGluR5 assay on HEK-expressing rat mGluR5 (fluorescent cell based Ca2+ mobilization); settings: for activation of rat mGluR5 receptors: HEK-rat mGluR5 cell line, without co-addition of glutamate or mGluR5 agonist; for pEC50: HEK-293 cells stably expressing rat mGluR5, no co-addition of glutamate, mean of at least three independent experiments in duplicate, read-out: Ca2+ Flux (mean EC50)
# T2 construct: expressed in transfected cells
# Description: Positive functional expression of HEK-293 cells stably expressing rat mGluR5 receptor was determined by measuring intracellular Ca^2+ changes using a Fluorometric Imaging Plate Reader (FLIPR, Molecular Devices, Sunnyvale, Calif.) in response to glutamate or selective known mGluR5 agonists and antagonists. Rat mGluR5RT-PCR products in HEK-293 cells were sequenced and found 100% identical to rat mGluR5Genbank reference sequence (NM_017012). HEK-293 cells expressing rmGluR5 were maintained in media containing DMEM, dialyzed Fetal Bovine Serum (10%), Glutamax™ (2 mM), Penicillin (100 units/ml), Streptomycin (100 μg/ml), Geneticin (100 μg/ml) and Hygromycin-B (40 μg/ml) at 37° C./5% CO2.
# After one day of incubation, cells were washed with assay buffer containing: 142 mM NaCl, 6 mM KCl, 1 mM […], 1 mM CaCl2, 20 mM HEPES, 1 g/L glucose, 0.125 mM sulfinpyrazone, pH 7.4. After 60 min of loading with 4 uM Fluo-4 (TefLabs, Austin, Tex.), the cells were washed three times with 50 μl of PBS Buffer and resuspended in 45 μl of assay Buffer. The plates were then transferred to a Fluorometric Imaging Plate Reader (FLIPR, Molecular Devices, Sunnyvale, Calif.) for the assessment of intracellular calcium flux. After monitoring the baseline fluorescence for 10 seconds, increasing concentrations of representative compound (from 0.01 to 60 μM) of the present invention diluted in Assay Buffer (15 μl of 4× dilutions) was added to the cell. The final DMSO concentration in the assay was 0.3%. In each experiment, fluorescence was then monitored as a function of time for 3 minutes and the data analyzed using Microsoft Excel and GraphPad Prism. Each data point was also measured two times.
# Under these experimental conditions, this HEK-rat mGluR5 cell line is able to directly detect positive allosteric modulators without the need of co-addition of glutamate or mGluR5 agonist.
# The concentration-response curves of representative compounds of the present invention were generated using the Prism GraphPad software (Graph Pad Inc, San Diego, USA). The curves were fitted to a four-parameter logistic equation:
# (Y=Bottom+(Top-Bottom)/(1+10̂((Log EC50−X)*Hill Slope)
# allowing determination of EC50 values.
# The Table 1 below represents the mean EC50 obtained from at least three independent experiments of selected molecules performed in duplicate.
# T2 sequence (P31424 21-1171 isoform P31424-2 limits assumed): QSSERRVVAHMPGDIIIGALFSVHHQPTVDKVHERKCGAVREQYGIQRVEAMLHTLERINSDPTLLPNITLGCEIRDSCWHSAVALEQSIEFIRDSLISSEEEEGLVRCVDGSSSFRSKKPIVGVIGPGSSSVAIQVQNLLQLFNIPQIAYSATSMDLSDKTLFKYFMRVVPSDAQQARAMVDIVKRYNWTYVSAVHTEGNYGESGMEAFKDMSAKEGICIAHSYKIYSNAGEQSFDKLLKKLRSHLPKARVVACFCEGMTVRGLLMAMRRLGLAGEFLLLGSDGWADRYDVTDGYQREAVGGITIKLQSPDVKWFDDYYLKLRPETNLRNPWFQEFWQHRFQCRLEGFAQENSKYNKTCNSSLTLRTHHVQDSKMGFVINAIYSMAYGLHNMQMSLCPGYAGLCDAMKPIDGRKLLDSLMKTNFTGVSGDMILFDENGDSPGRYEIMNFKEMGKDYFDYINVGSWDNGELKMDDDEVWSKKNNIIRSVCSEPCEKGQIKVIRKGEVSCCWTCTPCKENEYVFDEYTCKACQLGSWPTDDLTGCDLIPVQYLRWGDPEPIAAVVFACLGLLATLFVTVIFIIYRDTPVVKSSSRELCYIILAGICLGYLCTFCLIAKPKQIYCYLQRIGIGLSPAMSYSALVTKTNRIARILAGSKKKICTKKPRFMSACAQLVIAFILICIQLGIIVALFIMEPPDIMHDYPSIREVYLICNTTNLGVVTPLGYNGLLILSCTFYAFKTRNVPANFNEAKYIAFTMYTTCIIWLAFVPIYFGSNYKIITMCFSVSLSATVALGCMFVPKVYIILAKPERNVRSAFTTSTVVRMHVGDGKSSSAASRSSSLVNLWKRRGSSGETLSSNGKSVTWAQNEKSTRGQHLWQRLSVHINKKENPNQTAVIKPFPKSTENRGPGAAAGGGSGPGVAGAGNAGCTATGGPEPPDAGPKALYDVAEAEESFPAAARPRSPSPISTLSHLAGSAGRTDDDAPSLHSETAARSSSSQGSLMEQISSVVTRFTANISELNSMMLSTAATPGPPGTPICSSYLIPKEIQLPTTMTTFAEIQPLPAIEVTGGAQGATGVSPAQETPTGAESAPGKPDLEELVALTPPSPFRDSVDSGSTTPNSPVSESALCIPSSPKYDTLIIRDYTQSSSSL
# T1 sequence (P31424 21-1203): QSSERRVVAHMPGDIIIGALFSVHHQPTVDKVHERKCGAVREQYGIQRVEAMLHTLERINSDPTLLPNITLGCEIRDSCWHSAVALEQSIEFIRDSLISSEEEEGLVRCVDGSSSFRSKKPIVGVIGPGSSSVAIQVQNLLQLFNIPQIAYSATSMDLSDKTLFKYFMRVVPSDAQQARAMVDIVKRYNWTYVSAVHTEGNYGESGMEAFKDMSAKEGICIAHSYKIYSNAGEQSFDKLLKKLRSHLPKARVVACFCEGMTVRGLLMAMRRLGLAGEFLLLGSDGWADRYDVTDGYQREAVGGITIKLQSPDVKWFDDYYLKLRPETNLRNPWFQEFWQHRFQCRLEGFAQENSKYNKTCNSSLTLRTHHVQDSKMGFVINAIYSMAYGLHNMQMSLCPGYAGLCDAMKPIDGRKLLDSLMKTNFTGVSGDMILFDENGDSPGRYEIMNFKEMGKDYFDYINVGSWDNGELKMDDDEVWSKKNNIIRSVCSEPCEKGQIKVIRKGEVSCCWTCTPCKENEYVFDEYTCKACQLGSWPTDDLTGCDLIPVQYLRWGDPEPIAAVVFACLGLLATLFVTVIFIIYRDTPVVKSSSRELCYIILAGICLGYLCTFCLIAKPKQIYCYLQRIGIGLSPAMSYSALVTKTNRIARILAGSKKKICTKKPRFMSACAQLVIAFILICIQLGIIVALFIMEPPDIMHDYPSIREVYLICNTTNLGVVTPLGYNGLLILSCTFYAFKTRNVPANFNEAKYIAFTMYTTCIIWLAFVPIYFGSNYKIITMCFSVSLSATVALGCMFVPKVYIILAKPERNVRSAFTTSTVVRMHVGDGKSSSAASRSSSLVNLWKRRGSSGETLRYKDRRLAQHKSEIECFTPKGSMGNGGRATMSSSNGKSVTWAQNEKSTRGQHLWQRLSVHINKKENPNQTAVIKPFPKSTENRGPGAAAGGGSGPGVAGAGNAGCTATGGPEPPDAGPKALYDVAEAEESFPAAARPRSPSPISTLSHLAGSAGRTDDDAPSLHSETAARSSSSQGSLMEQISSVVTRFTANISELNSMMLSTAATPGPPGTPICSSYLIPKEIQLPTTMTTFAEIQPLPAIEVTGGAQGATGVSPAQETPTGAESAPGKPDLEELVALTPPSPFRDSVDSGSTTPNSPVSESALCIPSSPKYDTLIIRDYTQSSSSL
SMILES,pEC50 (rat mGluR5),further results
"Fc1cccc(/C=N/N=C/c2cccc(F)c2)c1 [DFB, reference compound]",–,activity in rat cortical astrocytes culture in the absence of added glutamate (mGluR5): inactive; activation of rat mGluR5 receptors (rat mGluR5): activating
"O=C(c1ccc(F)nc1)N1CCC[C@H](c2nc(-c3cc(F)c[nH]3)co2)C1 [Example 2, (6-Fluoro-pyridin-3-yl)-{(S)-3-[4-(4-fluoro-1H-pyrrol-2-yl)-oxazol-2-yl]-piperidin-1-yl}-methanone]",> 6.00,melting point: 123 °C
"O=C(c1ccc(F)cc1)N1CCC[C@H](c2nc(-c3ccccc3F)co2)C1 [Example 11, (S)-(4-Fluoro-phenyl)(3-(4-(2-fluoro-phenyl)-oxazol-2-yl)-piperidin-1-yl)-methanone]",> 6.00,–
"O=C(c1ccc(F)cc1)N1CCC[C@H](c2nc(-c3ccccn3)co2)C1 [Example 8, (S)-(4-Fluoro-phenyl)(3-(4-(pyridin-2-yl)-oxazol-2-yl)-piperidin-1-yl)-methanone]",> 6.00,–
"O=C(c1ccnc(F)c1)N1CCC[C@H](c2nc(-c3ccccc3F)co2)C1 [Example 13, (S)-(3-(4-(2-Fluoro-phenyl)-oxazol-2-yl)-piperidin-1-yl)(2-fluoro-pyridin-4-yl)-methanone]",> 6.00,–
"O=C(c1ccnc(F)c1)N1CCC[C@H](c2nc(-c3ccc(F)cc3)co2)C1 [Example 5, (2-Fluoro-pyridin-4-yl)-{(S)-3-[4-(4-fluoro-phenyl)-oxazol-2-yl]-piperidin-1-yl}-methanone]",> 6.00,–
"O=C(Nc1ccc(Cl)cc1CN1C(=O)c2ccccc2C1=O)c1ccccc1O [CPPHA, reference compound]",–,activity in rat cortical astrocytes culture in the absence of added glutamate (mGluR5): inactive; activation of rat mGluR5 receptors (rat mGluR5): activating
"O=C(c1ccc(F)nc1)N1CCC[C@H](c2nc(-c3ccccc3F)co2)C1 [Example 12, (S)-(3-(4-(2-Fluoro-phenyl)-oxazol-2-yl)-piperidin-1-yl)(6-fluoro-pyridin-3-yl)-methanone]",> 6.00,–
"O=C(c1ccc(F)cc1)N1CCC[C@H](c2nc(-c3ccc(F)cn3)co2)C1 [Example 10, (S)-(4-Fluoro-phenyl)(3-(4-(5-fluoro-pyridin-2-yl)-oxazol-2-yl)-piperidin-1-yl)-methanone]",> 6.00,–
"O=C(c1ccc(F)cc1)N1CCC[C@H](c2nc(-c3ccc(F)cc3)co2)C1 [Example 3, (4-Fluoro-phenyl)-{(S)-3-[4-(4-fluorophenyl)-oxazol-2-yl]-piperidin-1-yl}-methanone]",> 6.00,–
"O=C(c1ccc(F)nc1)N1CCC[C@H](c2nc(-c3ccc(F)cc3)co2)C1 [Example 4, (6-Fluoro-pyridin-3-yl)-{(S)-3-[4-(4-fluoro-phenyl)-oxazol-2-yl]-piperidin-1-yl}-methanone]",> 6.00,–
"N#Cc1cccc(C(=O)Nc2cc(-c3ccccc3)nn2-c2ccccc2)c1 [CDPPB, reference compound]",–,activity in rat cortical astrocytes culture in the absence of added glutamate (mGluR5): inactive; activation of rat mGluR5 receptors (rat mGluR5): activating
"O=C(c1ccnc(F)c1)N1CCC[C@H](c2nc(-c3ccc(F)cc3F)co2)C1 [Example 16, (S)-(3-(4-(2,4-Difluoro-phenyl)-oxazol-2-yl)-piperidin-1-yl)(2-fluoro-pyridin-4-yl)-methanone]",> 6.00,–
"O=C(c1ccc(F)nc1)N1CCC[C@H](c2nc(-c3ccc(F)cc3F)co2)C1 [Example 15, (S)-(3-(4-(2,4-Difluoro-phenyl)-oxazol-2-yl)-piperidin-1-yl)(6-fluoro-pyridin-3-yl)-methanone]",5.00 to 6.00,–
"O=C(c1ccc(F)c(F)c1)N1CCC[C@H](c2nc(-c3ccccn3)co2)C1 [Example 9, (S)-(3,4-Difluoro-phenyl)(3-(4-(pyridin-2-yl)-oxazol-2-yl)-piperidin-1-yl)-methanone]",> 6.00,–
"O=C(c1ccncc1F)N1CCC[C@H](c2nc(-c3ccc(F)cc3)co2)C1 [Example 6, (3-Fluoro-pyridin-4-yl)-{(S)-3-[4-(4-fluoro-phenyl)-oxazol-2-yl]-piperidin-1-yl}-methanone]",> 6.00,–
"O=C(c1ccc(F)cc1)N1CCC[C@H](c2nc(-c3ccc(F)cc3F)co2)C1 [Example 14, (S)-(3-(4-(2,4-Difluoro-phenyl)-oxazol-2-yl)-piperidin-1-yl)(4-fluoro-phenyl)-methanone]",> 6.00,–
"Cc1oncc1C(=O)N1CCC[C@H](c2nc(-c3ccc(F)cc3)co2)C1 [Example 7, (S)-(3-(4-(4-Fluoro-phenyl)-oxazol-2-yl)-piperidin-1-yl)(5-methyl-isoxazol-4-yl)-methanone]",> 6.00,–
